One data set relates to L02. In words: Cytotoxicity against human L02 cells at 100 uM by MTT assay. It is filed as toxicity, cell-based. The note with it: l02, 100 µM. (In general: Tetrazolium dyes change colour on reduction, which living cells bring about.)
Another data set has as its system HepG2. In words: Cytotoxicity against human HepG2 cells at 100 uM by MTT assay. The format is toxicity, cell-based. The following applies: hepg2, 100 µM.
Data set [1] has as its target Maltase-glucoamylase (Homo sapiens) (UniProt O43451). In words: Inhibition of alpha-glucosidase (unknown origin) at 100 uM relative to control.
For data set [2] the target is unchanged. In words: Mixed type inhibition of alpha-glucosidase (unknown origin) assessed as increase in Km by measuring increase in intercept using pNPG as substrate at upto 25 uM by Lineweaver-Burk plot analysis.
Data set [3] has the same target. In words: Mixed type inhibition of alpha-glucosidase (unknown origin) assessed as decrease in Vmax by measuring increase in slope using pNPG as substrate at upto 25 uM by Lineweaver-Burk plot analysis.
For data set [4] the target is unchanged. In words: Inhibition of alpha-glucosidase (unknown origin) assessed as increase in intrinsic fluorescence emission. The following applies: dose 0-100 µM.
Data set [5] concerns Rattus norvegicus. In words: Anti-hyperglycemic activity in sucrose loaded Sprague-Dawley rat assessed as blood glucose level at 5 mg/kg, po measured at 30 mins by oral sucrose tolerance test (reference value: 10.80+/-0.92 mmol/L). The format is functional. The note with it: 0.5 h.
The target of the next data set is T1, Alpha amylase (Homo sapiens, UniProt P0DUB6).
T1 sequence (P0DUB6 whole entry): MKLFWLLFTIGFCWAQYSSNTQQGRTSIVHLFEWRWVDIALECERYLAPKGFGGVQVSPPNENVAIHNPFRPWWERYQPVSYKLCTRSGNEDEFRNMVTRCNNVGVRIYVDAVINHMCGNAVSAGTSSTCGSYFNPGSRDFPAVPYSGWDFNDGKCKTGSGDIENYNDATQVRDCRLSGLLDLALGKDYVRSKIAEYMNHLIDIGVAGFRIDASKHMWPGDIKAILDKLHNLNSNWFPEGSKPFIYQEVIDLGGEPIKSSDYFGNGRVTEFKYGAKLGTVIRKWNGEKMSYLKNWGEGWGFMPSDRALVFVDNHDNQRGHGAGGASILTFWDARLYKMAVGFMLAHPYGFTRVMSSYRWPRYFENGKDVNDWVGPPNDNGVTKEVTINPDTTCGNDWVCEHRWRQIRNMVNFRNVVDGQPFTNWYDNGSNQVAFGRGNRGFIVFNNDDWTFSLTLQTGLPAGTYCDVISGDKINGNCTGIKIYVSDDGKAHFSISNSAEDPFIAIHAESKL
In words: Inhibition of alpha-amylase (unknown origin).

For a further data set, the species on record is Homo sapiens. In words: Selectivity ratio of IC50 for alpha-amylase (unknown origin) to IC50 for alpha-glucosidase (unknown origin).
For data set [6], the system named is Rattus norvegicus. In words: Anti-hyperglycemic activity in sucrose loaded Sprague-Dawley rat assessed as decrease in blood glucose level at 5 mg/kg, po measured after 45 mins by oral sucrose tolerance test. It is filed as functional. The following applies: 0.75 h.

The source made the active and inactive calls. The rule behind the calls is not given here.

Maltase-glucoamylase (Homo sapiens), sequence (O43451 whole entry, looked up): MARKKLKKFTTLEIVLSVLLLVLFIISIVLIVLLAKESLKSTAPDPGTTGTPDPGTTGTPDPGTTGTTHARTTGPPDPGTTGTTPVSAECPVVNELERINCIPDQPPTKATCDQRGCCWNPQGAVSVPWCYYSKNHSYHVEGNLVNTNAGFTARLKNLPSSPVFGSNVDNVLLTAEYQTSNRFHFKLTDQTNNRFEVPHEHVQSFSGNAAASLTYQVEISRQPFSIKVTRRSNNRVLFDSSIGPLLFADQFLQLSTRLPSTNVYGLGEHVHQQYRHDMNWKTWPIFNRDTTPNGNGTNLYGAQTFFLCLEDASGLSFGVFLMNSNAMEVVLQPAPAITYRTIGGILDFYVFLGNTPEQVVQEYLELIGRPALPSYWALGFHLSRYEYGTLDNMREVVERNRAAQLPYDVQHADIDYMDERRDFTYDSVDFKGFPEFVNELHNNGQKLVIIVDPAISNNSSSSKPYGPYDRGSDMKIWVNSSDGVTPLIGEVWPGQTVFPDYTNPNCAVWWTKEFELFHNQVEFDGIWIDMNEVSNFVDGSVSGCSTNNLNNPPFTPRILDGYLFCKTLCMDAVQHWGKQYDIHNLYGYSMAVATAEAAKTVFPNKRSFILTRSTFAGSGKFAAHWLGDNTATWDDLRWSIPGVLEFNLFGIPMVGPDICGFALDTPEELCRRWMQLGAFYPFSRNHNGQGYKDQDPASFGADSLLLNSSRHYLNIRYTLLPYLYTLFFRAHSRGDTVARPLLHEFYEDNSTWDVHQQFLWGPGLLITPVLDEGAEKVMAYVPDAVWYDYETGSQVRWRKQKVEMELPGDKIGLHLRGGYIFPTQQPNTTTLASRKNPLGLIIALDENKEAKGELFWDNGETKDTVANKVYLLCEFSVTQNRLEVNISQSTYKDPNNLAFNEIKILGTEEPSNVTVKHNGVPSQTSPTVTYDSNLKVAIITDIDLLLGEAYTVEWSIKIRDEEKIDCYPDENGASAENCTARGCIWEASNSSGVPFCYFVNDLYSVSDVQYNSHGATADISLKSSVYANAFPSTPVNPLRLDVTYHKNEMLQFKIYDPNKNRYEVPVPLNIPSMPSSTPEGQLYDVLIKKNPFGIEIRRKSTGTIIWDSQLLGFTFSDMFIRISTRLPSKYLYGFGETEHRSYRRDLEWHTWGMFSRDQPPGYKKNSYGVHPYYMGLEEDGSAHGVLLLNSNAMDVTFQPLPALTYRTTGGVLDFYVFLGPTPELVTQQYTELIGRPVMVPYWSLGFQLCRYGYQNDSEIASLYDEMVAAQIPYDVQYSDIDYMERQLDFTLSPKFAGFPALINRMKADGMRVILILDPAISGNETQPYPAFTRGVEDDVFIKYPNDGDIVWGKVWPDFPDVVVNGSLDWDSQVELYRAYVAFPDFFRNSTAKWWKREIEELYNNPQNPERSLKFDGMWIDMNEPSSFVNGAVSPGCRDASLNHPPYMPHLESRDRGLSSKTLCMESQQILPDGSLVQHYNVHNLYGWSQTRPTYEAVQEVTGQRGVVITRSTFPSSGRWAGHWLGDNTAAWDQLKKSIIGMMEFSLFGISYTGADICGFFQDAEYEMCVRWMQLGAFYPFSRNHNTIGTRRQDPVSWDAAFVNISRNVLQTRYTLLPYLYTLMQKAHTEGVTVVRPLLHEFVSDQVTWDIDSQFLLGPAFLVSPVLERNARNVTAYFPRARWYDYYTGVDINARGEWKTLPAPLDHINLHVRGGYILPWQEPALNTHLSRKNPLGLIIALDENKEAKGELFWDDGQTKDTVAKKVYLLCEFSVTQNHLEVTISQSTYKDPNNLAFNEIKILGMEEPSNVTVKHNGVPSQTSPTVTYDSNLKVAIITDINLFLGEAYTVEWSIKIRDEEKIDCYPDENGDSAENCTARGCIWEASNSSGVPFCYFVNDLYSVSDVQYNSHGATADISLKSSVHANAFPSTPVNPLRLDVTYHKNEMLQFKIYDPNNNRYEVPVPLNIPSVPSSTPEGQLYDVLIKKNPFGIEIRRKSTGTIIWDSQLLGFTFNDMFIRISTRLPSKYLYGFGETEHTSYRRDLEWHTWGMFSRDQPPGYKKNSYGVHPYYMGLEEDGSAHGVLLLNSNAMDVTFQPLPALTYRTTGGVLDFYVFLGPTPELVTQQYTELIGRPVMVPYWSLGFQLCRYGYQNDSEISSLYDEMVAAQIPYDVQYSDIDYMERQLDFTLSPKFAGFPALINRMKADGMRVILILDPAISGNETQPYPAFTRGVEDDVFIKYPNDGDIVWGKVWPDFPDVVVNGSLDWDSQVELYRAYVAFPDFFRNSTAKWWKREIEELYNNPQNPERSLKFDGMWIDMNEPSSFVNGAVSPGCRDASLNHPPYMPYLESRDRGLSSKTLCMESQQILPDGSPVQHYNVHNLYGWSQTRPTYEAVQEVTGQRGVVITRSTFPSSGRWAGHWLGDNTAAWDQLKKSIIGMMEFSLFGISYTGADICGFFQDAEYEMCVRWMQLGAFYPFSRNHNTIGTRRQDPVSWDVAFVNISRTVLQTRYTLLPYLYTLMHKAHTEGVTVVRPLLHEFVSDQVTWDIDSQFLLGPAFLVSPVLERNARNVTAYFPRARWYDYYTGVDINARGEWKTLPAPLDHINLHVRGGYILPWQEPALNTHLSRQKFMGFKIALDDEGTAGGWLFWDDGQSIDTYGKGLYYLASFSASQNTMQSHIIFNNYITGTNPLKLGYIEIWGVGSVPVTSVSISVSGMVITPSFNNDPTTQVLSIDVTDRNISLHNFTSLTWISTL

As a reminder, the inhibition is how much of the control response was suppressed. Higher therefore signals a strong effect. With `COc1cc(CNC(=O)c2c(NC(=O)c3cccnc3)sc3c2CCC3)ccc1O`, the Activity result in the data set on L02 and in the data set on HepG2 was “Non-Toxic” in each case. This compound also came in with an inhibition in [1] of 50.6%.

Regarding `COc1cc(CNC(=O)c2c(NC(=O)c3cccnc3)sc3c2CCCCC3)ccc1O`, the inhibition in [1] turned out to be 81.7%.

For the compound `O=C(Nc1sc2c(c1C(=O)NCc1ccccc1)CCC2)c1cccnc1`, the Activity entry with L02 and in the data set with HepG2 was “Non-Toxic” each time. In addition, the inhibition in [1] was 56.6%.

As to `O=C(Nc1sc2c(c1C(=O)NCc1ccncc1)CCCC2)c1cccnc1`, the inhibition in data set [1] came to 44.1%.

In the case of `O=C(Nc1sc2c(c1C(=O)NCc1cccnc1)CCCCC2)c1cccnc1`, the inhibition in [1] came out at 26.5%.

Regarding `COc1cc2c(cc1OC)CN(C(=O)c1c(NC(=O)c3cccnc3)sc3c1CCCC3)CC2`, the inhibition in [1] was determined as 42.2%.

The term IC50 denotes the point on the concentration scale where inhibition reaches its midpoint. Take `COc1cc(CNC(=O)c2c(NC(=O)c3cccnc3)sc3c2CCCC3)ccc1O`: the Activity result is “Non-Toxic” with L02; “Non-Toxic” with HepG2; “Dose-Dependent Effect” in data set [4]; 9.73 mmol/L in the data set with Rattus norvegicus [5]; 9.9 mmol/L in the data set with Rattus norvegicus [6]. For the same compound, the outcome in [2] and in [3] was Active. At Alpha amylase, the IC50 was found to be 72.9 µM. Also, the Ratio IC50 in the data set listed under Homo sapiens worked out at 7.4. In addition, in [1], the inhibition stood at 93.6%.

For `C[C@H]1O[C@H](O[C@H]2[C@H](O)[C@@H](O)[C@@H](O[C@H]3[C@H](O)[C@@H](O)C(O)O[C@@H]3CO)O[C@@H]2CO)[C@H](O)[C@@H](O)[C@@H]1N[C@H]1C=C(CO)[C@@H](O)[C@H](O)[C@H]1O` (stereo partly drawn) [ACARBOSE], the Activity result in the data set on L02 is “Non-Toxic”; with HepG2, “Non-Toxic”; in the data set on Rattus norvegicus [5], 9.57 mmol/L; in the data set on Rattus norvegicus [6], 9.89 mmol/L.

`O=C(Nc1sc2c(c1C(=O)NCc1cccnc1)CCCC2)c1cccnc1`: the Activity entry with L02 and in the data set on HepG2 was “Non-Toxic” in each case. Further, at Alpha amylase, the IC50 was 48.1 µM. In addition, the Ratio IC50 in the data set listed under Homo sapiens is 0.9. In data set [1], this compound gave an inhibition of 62.7%.

`COc1cc2c(cc1OC)CN(C(=O)c1c(NC(=O)c3cccnc3)sc3c1CCC3)CC2`: the Activity result in the data set with L02 and in the data set on HepG2 was “Non-Toxic” in each case. The compound also returned an inhibition in data set [1] of 23.2%.

On to `COc1ccc(CNC(=O)c2c(NC(=O)c3cccnc3)sc3c2CCC3)cc1`, for which the Activity result with L02 and in the data set with HepG2 was “Non-Toxic” in each case. This compound came in with an inhibition in data set [1] of 55.4%.

Consider `O=C(Nc1sc2c(c1C(=O)NCc1ccncc1)CCC2)c1cccnc1`, for which the Activity entry with L02 and in the data set on HepG2 was “Non-Toxic” throughout. In [1], this compound showed an inhibition of 1.1%.

Consider `COC(=O)c1ccc(CNC(=O)c2c(NC(=O)c3cccnc3)sc3c2CCCC3)cc1`, for which the Activity result in the data set with L02 and in the data set on HepG2 was “Non-Toxic” each time. Also, on Alpha amylase, the IC50 turned out to be 66.9 µM. Further, the Ratio IC50 in the data set filed under Homo sapiens came out at 0.8. Besides, the inhibition in data set [1] worked out at 58.2%.

In the case of `COC(=O)c1ccc(CNC(=O)c2c(NC(=O)c3cccnc3)sc3c2CCC3)cc1`, the Activity entry with L02 and in the data set on HepG2 was “Non-Toxic” throughout. Moreover, in data set [1], the inhibition was 21.9%.

For the compound `O=C(Nc1sc2c(c1C(=O)NCc1ccccn1)CCCC2)c1cccnc1`, the Activity result in the data set with L02 and in the data set with HepG2 was “Non-Toxic” throughout. For the same compound, the IC50 at Alpha amylase was 94.8 µM. In addition, the Ratio IC50 in the data set filed under Homo sapiens is 1.5. The inhibition in [1] is 57.2%.

Regarding `O=C(Nc1sc2c(c1C(=O)NCc1cccnc1)CCC2)c1cccnc1`, the Activity entry in the data set on L02 and with HepG2 was “Non-Toxic” in each case. Also, the inhibition in data set [1] was 12.5%.

`O=C(Nc1sc2c(c1C(=O)NCc1ccncc1)CCCCC2)c1cccnc1` gave an inhibition in [1] of 9.2%.

The compound `COc1ccc(CNC(=O)c2c(NC(=O)c3cccnc3)sc3c2CCCCC3)cc1` showed an inhibition in data set [1] of 44.1%.

Regarding `COc1ccc(CNC(=O)c2c(NC(=O)c3cccnc3)sc3c2CCCC3)cc1`, the Activity result in the data set on L02 and with HepG2 was “Non-Toxic” in each case. The same compound gave an IC50 at Alpha amylase of 80.4 µM. Further, the Ratio IC50 in the data set filed under Homo sapiens stood at 2.7. The inhibition in [1] is 78.1%.

`O=C(Nc1sc2c(c1C(=O)NCc1ccccc1)CCCCC2)c1cccnc1`: the inhibition in data set [1] is 59%.

`O=C(Nc1sc2c(c1C(=O)NCc1ccccn1)CCCCC2)c1cccnc1`: the inhibition in data set [1] stood at 26.8%.

With `O=C(Nc1sc2c(c1C(=O)NCc1ccccc1)CCCC2)c1cccnc1`, the Activity entry in the data set on L02 and with HepG2 was “Non-Toxic” throughout. The compound further registered an IC50 on Alpha amylase of 76.1 µM. The Ratio IC50 in the data set listed under Homo sapiens stood at 1.7. The compound further displayed an inhibition in [1] of 64.4%.

In the case of `O=C(Nc1sc2c(c1C(=O)NCc1ccccn1)CCC2)c1cccnc1`, the Activity result in the data set on L02 and in the data set on HepG2 was “Non-Toxic” in each case. The inhibition in data set [1] was found to be 30.5%.

In turn, `COc1cc2c(cc1OC)CN(C(=O)c1c(NC(=O)c3cccnc3)sc3c1CCCCC3)CC2` displayed an inhibition in [1] of 29.1%.

With `COC(=O)c1ccc(CNC(=O)c2c(NC(=O)c3cccnc3)sc3c2CCCCC3)cc1`, the inhibition in [1] came to 18.1%.
